For one test, the target named is T1, protein kinase D2 (PKD2) (Homo sapiens, UniProt Q9BZL6).
T1 construct: This assay is performed with full length wild-type enzyme purchase from Invitrogen; purchased Invitrogen
T1 sequence (Q9BZL6 1-878): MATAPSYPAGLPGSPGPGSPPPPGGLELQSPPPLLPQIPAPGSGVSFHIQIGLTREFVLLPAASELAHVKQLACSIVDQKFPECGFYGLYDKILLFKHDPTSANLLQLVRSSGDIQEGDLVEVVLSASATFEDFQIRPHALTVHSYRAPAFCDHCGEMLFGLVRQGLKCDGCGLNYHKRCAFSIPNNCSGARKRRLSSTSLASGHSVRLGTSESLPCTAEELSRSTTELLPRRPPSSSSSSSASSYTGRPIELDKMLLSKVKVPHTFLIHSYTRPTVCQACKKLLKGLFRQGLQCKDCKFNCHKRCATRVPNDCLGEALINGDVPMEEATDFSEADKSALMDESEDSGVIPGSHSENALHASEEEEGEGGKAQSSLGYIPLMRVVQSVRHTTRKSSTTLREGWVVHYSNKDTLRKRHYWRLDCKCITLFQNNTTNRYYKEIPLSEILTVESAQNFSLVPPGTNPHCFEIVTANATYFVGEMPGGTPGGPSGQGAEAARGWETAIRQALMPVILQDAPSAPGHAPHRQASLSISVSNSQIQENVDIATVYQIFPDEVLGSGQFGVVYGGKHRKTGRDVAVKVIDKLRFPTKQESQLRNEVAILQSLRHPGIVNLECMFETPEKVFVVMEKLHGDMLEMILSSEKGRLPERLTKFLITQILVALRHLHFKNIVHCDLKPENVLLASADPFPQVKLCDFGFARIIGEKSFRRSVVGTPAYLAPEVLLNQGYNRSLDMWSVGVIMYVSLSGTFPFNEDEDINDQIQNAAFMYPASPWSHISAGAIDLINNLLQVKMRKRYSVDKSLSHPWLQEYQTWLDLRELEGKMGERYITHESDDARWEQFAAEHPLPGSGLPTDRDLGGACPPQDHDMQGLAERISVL
The test can be described thus: PKD2 TR-FRET (LANCE) kinase assay.
Conditions: not given
It counts as biochemical. An excerpt: The assay to measure protein kinase D2 (PKD2) activity is a time-resolved fluorescence resonance transfer (TR-FRET) assay using PerkinElmer's LANCE™ technology. In this case, a biotinylated syntide-2 peptide is used as the substrate in this reaction. Phosphorylation of the syntide-2 substrate is detected by a specific antibody that recognizes the phosphorylated peptide. A second fluorophore, APC, is conjugated to streptavidin that binds the biotinylated syntide-2 peptide. […] Therefore, when the europium labeled secondary antibody binds on the phosphorylated peptide, it is brought into close contact with the APC and excites this fluorophore.
This assay is performed with full length wild-type enzyme purchase from Invitrogen. The reaction buffer consists of 35 mM Tris-HCl pH7.5, 5 mM MgCl2, 0.02% Tween-20, 20 μM ATP, 1 mM DTT and 0.2 μg/mL PKD2 enzyme. The enzyme reaction is initiated by the addition of 2 μM syntide-2 peptide substrate and the reaction carried out for 50 minutes at room temperature. The reaction is stopped by a stop/detection buffer consisting of 50 mM EDTA, 0.18 mg/mL rabbit polyclonal anti-phospho syntide-2 antibody, 0.5 nM europium labeled anti-rabbit IgG and 10 nM streptavidin conjugated APC. After a one hour incubation with the stop/detection buffer, the reaction is read on an Envision 2100 Reader using a LANCE™ Eu/APC dual protocol. […] IC50 values are calculated using an Activity Base (IDBS) software program.
`CN1CCN(c2nc(-c3ccnc(NC4CCCCC4)c3)cc3cnccc23)CC1` [Example 13, Cyclohexyl-{4-[1-(4-methylpiperazin-1-yl)-[2,6]naphthyridin-3-yl]pyridin-2-yl}amine] came in with an IC50 of 14 nM.

`CNc1cc(-c2cc3cnccc3c(NC)n2)ccn1` [Example 2, 1-Methylamino-3-(2-methylaminopyridin-4-yl)-[2,6]-naphthyridine] registered an IC50 of 753 nM.

Turning to `NC(=O)C1CCN(c2nc(-c3ccnc(NC4CCCCC4)c3)cc3cnccc23)CC1` [Example 10, 1-[3-(2-Cyclohexylaminopyridin-4-yl)-[2,6]naphthyridin-1-yl]piperidine-4-carboxylic acid amide], the IC50 was determined as 414 nM.

`O=C(NCCO)C1CCN(c2nc(-c3ccnc(NC4CCOCC4)c3)cc3cnccc23)CC1` [Example 16, 1-{3-[2-(Tetrahydropyran-4-ylamino)pyridin-4-yl]-[2,6]naphthyridin-1-yl}piperidine-4-carboxylic acid (2-hydroxyethyl)amide] had an IC50 of 11 nM.

The same test, now with this note: full length wild-type enzyme, 20 μM ATP; read-out: Inhibitory Activity PKD2.
As to `O=C(NC1CC1)C1CCN(c2nc(-c3ccnc(NC4CCOCC4)c3)cc3cnccc23)CC1` [Example 17, 1-{3-[2-(Tetrahydropyran-4-ylamino)pyridin-4-yl]-[2,6]naphthyridin-1-yl}piperidine-4-carboxylic acid cyclopropylamide], the IC50 worked out at 14 nM.

For the compound `CNc1cc(-c2cc3cnccc3c(NCCCO)n2)ccn1` [Example 1], the IC50 was 903 nM.

As to `COCCNc1cc(-c2cc3cnccc3c(N3CCNCC3)n2)ccn1` [Example 21, (2-Methoxyethyl)-[4-(1-piperazin-1-yl-[2,6]naphthyridin-3-yl)-pyridin-2-yl]amine], the IC50 was 120 nM.

Consider `CC(=O)N1CCN(c2nc(-c3ccnc(NC4CCCCC4)c3)cc3cnccc23)CC1` [Example 11, 1-{4-[3-(2-Cyclohexylaminopyridin-4-yl)-[2,6]naphthyridin-1-yl]piperazin-1-yl}ethanone], for which the IC50 stood at 137 nM.

With `OCCNc1nc(-c2ccnc(NC3CCCCC3)c2)cc2cnccc12` [Example 5, 2-[3-(2-Cyclohexylaminopyridin-4-yl)-[2,6]naphthyridin-1-ylamino]ethanol], the IC50 is 1370 nM.

For `CC(C)Nc1cc(-c2cc3cnccc3c(NCCO)n2)ccn1` [Example 6, 2-[3-(2-Isopropylaminopyridin-4-yl)-[2,6]naphthyridin-1-ylamino]ethanol], the IC50 amounted to 497 nM.

For `c1cc2c(NC3CCCNC3)nc(-c3ccnc(NC4CCCCC4)c3)cc2cn1` (stereo not drawn) [Example 15, [3-(2-Cyclohexylaminopyridin-4-yl)-[2,6]naphthyridin-1-yl]piperidin-3-ylamine], the IC50 came to 102 nM.

With `c1cc2c(N3CCNCC3)nc(-c3ccnc(NC4CCCCC4)c3)cc2cn1` [Example 3, Cyclohexyl-[4-(1-piperazin-1-yl-[2,6]naphthyridin-3-yl)pyridin-2-yl]amine], the IC50 amounted to 0.3 nM.

For `c1ccc(Nc2cc(-c3cc4cnccc4c(N4CCNCC4)n3)ccn2)cc1` [Example 4, Phenyl-[4-(1-piperazin-1-yl-[2,6]naphthyridin-3-yl)pyridin-2-yl]amine], the IC50 was 40 nM.

On to `COc1cccc(Nc2cc(-c3cc4cnccc4c(NCCO)n3)ccn2)c1` [Example 7], for which the IC50 came to 195 nM.

With `CN(C)CCNc1nc(-c2ccnc(NC3CCCCC3)c2)cc2cnccc12` [Example 8, N-[3-(2-Cyclohexylaminopyridin-4-yl)-[2,6]naphthyridin-1-yl]-N′,N′-dimethylethane-1,2-diamine], the IC50 amounted to 259 nM.

For the compound `CN(C)CCNc1nc(-c2ccnc(Nc3ccccc3)c2)cc2cnccc12` [Example 9, N,N-Dimethyl-N′-[3-(2-phenylaminopyridin-4-yl)-[2,6]naphthyridin-1-yl]-ethane-1,2-diamine], the IC50 was determined as 169 nM.

Regarding `Cn1ccc(Nc2cc(-c3cc4cnccc4c(N4CCC5(CCNC5=O)CC4)n3)ccn2)n1` [Example 20, 8-{3-[2-(1-Methyl-1H-pyrazol-3-ylamino)pyridin-4-yl]-[2,6]naphthyridin-1-yl}-2,8-diaza-spiro[4.5]decan-1-one], the IC50 was 59 nM.

Consider `Cn1ccc(Nc2cc(-c3cc4cnccc4c(N4CCC(C(N)=O)CC4)n3)ccn2)n1` [Example 19, 1-{3-[2-(1-Methyl-1H-pyrazol-3-ylamino)pyridin-4-yl]-[2,6]naphthyridin-1-yl}piperidine-4-carboxylic acid amide], for which the IC50 amounted to 2 nM.

As to `c1cc2c(NC3CCNC3)nc(-c3ccnc(NC4CCCCC4)c3)cc2cn1` (stereo not drawn) [Example 14, [3-(2-Cyclohexylaminopyridin-4-yl)-[2,6]naphthyridin-1-yl]pyrrolidin-3-ylamine], the IC50 was determined as 6 nM.

For `CN(C)CC1CCN(c2nc(-c3ccnc(NC4CCCCC4)c3)cc3cnccc23)CC1` [Example 12, Cyclohexyl-{4-[1-(4-dimethylaminomethylpiperidin-1-yl)-[2,6]naphthyridin-3-yl]pyridin-2-yl}amine], the IC50 was found to be 63 nM.

Consider `CCNC(=O)N1CCN(c2nc(-c3ccnc(Nc4ccn(C)n4)c3)cc3cnccc23)CC1` [Example 18, 4-{3-[2-(1-Methyl-1H-pyrazol-3-ylamino)pyridin-4-yl]-[2,6]naphthyridin-1-yl}piperazine-1-carboxylic acid ethylamide], for which the IC50 amounted to 127 nM.

Source of the values: patent publication US20120142685A1, “ORGANIC COMPOUNDS” (priority 2007, published 2012).
